What follows are molecules tested against T1, interaction between biotinylated human S100A9 and human RAGE-Fc (Homo sapiens, UniProt P06702) (assay: AlphaScreen inhibition assay, Biot-hS100A9:hRAGE-Fc (S100A9-RAGE inhibition assay)). Details: biot-hS100A9 and rhRAGE-Fc, Ca2+ and Zn2+ in buffer.
T1 construct: made in house; host or cells: E. coli BL21(DE3)/pET1120 (pLR757)
T1 sequence (P06702 1-114): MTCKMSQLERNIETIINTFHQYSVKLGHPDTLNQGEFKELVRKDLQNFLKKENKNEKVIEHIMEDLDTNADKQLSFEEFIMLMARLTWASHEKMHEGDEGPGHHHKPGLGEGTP
Type: binding
Method in brief: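 Biotinylated human S100A9, in HBS-P with CaCl2 and ZnCl2, preincubated 1 h at room temperature in the dark with compound (final DMSO ≤1.25%), then combined with rhRAGE-Fc on protein A Acceptor beads plus streptavidin Donor beads (20 μg/mL each). Protein levels batch-dependent; percent inhibition from AlphaScreen signal vs DMSO-only control.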
`CS(=O)(=O)NC(=O)c1cccc2c1nc1n2C(NC(=O)CCC2CCCC2)(C(F)(F)F)C(=O)N1` (stereo not shown) [Example 166, 3-(3-cyclopentylpropanamido)-N-methanesulfonyl-4-oxo-3-(trifluoromethyl)-2,5,7-triazatricyclo[6.4.0.0^2,6]dodeca-1(12),6,8,10-tetraene-9-carboxamide] was tested, and the IC50 was 0.4 µM.
In the case of `O=C(CCC1CCCC1)NC1(C(F)(F)F)C(=O)Nc2nc3c(F)c(Br)ccc3n21` (stereo not shown) [Example 177, N-[10-bromo-9-fluoro-4-oxo-3-(trifluoromethyl)-2,5,7-triazatricyclo[6.4.0.0^2,6]dodeca-1(12),6,8,10-tetraen-3-yl]-3-cyclopentylpropanamide], the IC50 is reported as 1.63 µM.
For `O=C(CCC1CCCC1)NC1(C(F)(F)F)C(=O)Nc2nc3c(Br)cc(Cl)cc3n21` (stereo not shown) [Example 181, N-[9-bromo-11-chloro-4-oxo-3-(trifluoromethyl)-2,5,7-triazatricyclo[6.4.0.0^2,6]dodeca-1(12),6,8,10-tetraen-3-yl]-3-cyclopentylpropanamide], the IC50 was 1.45 µM.
`CC(=O)c1cc(Cl)cc2c1nc1n2C(NC(=O)CCC2CCCC2)(C(F)(F)F)C(=O)N1` (stereo not shown) [Example 182, N-[9-acetyl-11-chloro-4-oxo-3-(trifluoromethyl)-2,5,7-triazatricyclo[6.4.0.0^2,6]dodeca-1(12),6,8,10-tetraen-3-yl]-3-cyclopentylpropanamide] gave an IC50 of 1.12 µM.
`COc1ccc(-c2cccc3c2nc2n3C(NC(=O)CCC3CCCC3)(C(F)(F)F)C(=O)N2)cc1` (stereo not shown) [Example 186, 3-cyclopentyl-N-[9-(4-methoxyphenyl)-4-oxo-3-(trifluoromethyl)-2,5,7-triazatricyclo[6.4.0.0^2,6]dodeca-1(12),6,8,10-tetraen-3-yl]propanamide] gave an IC50 of 0.58 µM.
`COc1ccc(-c2cccc3c2nc2n3C(NC(=O)CCC3CCCC3)(C(F)(F)F)C(=O)N2)cn1` (stereo not shown) [Example 188, 3-cyclopentyl-N-[9-(6-methoxypyridin-3-yl)-4-oxo-3-(trifluoromethyl)-2,5,7-triazatricyclo[6.4.0.0^2,6]dodeca-1(12),6,8,10-tetraen-3-yl]propanamide] showed an IC50 of 0.94 µM.
Molecule `COc1cccc(-c2cccc3c2nc2n3C(NC(=O)CCC3CCCC3)(C(F)(F)F)C(=O)N2)c1` (stereo not shown) [Example 189, 3-cyclopentyl-N-[9-(3-methoxyphenyl)-4-oxo-3-(trifluoromethyl)-2,5,7-triazatricyclo[6.4.0.0^2,6]dodeca-1(12),6,8,10-tetraen-3-yl]propanamide] has an IC50 of 0.95 µM.
`CC(C)(C)c1ccc(-c2cccc3c2nc2n3C(NC(=O)CCC3CCCC3)(C(F)(F)F)C(=O)N2)cc1` (stereo not shown) [Example 191, N-[9-(4-tert-butylphenyl)-4-oxo-3-(trifluoromethyl)-2,5,7-triazatricyclo[6.4.0.0^2,6]dodeca-1(12),6,8,10-tetraen-3-yl]-3-cyclopentylpropanamide] showed an IC50 of 1.49 µM.
For `O=C(CCC1CCCC1)NC1(C(F)(F)F)C(=O)Nc2nc3c(-c4ccc([N+](=O)[O-])cc4)cccc3n21` (stereo not shown) [Example 193, 3-cyclopentyl-N-[9-(4-nitrophenyl)-4-oxo-3-(trifluoromethyl)-2,5,7-triazatricyclo[6.4.0.0^2,6]dodeca-1(12),6,8,10-tetraen-3-yl]propanamide], the IC50 was 1.56 µM.
`O=C(CCC1CCCC1)NC1(C(F)(F)F)C(=O)Nc2nc3c(-c4ccccc4)cccc3n21` (stereo not shown) [Example 195, 3-cyclopentyl-N-[4-oxo-9-phenyl-3-(trifluoromethyl)-2,5,7-triazatricyclo[6.4.0.0^2,6]dodeca-1(12),6,8,10-tetraen-3-yl]propanamide] showed an IC50 of 1.27 µM.
`O=C(CCC1CCCC1)NC1(C(F)(F)F)C(=O)Nc2nc3c(-c4ccccc4O)cccc3n21` (stereo not shown) [Example 198, 3-cyclopentyl-N-[9-(2-hydroxyphenyl)-4-oxo-3-(trifluoromethyl)-2,5,7-triazatricyclo[6.4.0.0^2,6]dodeca-1(12),6,8,10-tetraen-3-yl]propanamide] was tested, and the IC50 was 1.97 µM.
`O=C(CCC1CCCC1)NC1(C(F)(F)F)C(=O)Nc2nc3c(-c4nnn[nH]4)cccc3n21` (stereo not shown) [Example 199, 3-cyclopentyl-N-[4-oxo-9-(1H-1,2,3,4-tetrazol-5-yl)-3-(trifluoromethyl)-2,5,7-triazatricyclo[6.4.0.0^2,6]dodeca-1(12),6,8,10-tetraen-3-yl]propanamide] showed an IC50 of 0.92 µM.
With `O=C(CCC1CCCC1)NC1(C(F)(F)F)C(=O)Nc2nc3c(-c4ccc(Cl)cc4)cccc3n21` (stereo not shown) [Example 201, N-[9-(4-chlorophenyl)-4-oxo-3-(trifluoromethyl)-2,5,7-triazatricyclo[6.4.0.0^2,6]dodeca-1(12),6,8,10-tetraen-3-yl]-3-cyclopentylpropanamide] the IC50 was 0.85 µM.
`Cc1ccc(-c2cccc3c2nc2n3C(NC(=O)CCC3CCCC3)(C(F)(F)F)C(=O)N2)cc1` (stereo not shown) [Example 202, 3-cyclopentyl-N-[9-(4-methylphenyl)-4-oxo-3-(trifluoromethyl)-2,5,7-triazatricyclo[6.4.0.0^2,6]dodeca-1(12),6,8,10-tetraen-3-yl]propanamide] showed an IC50 of 0.7 µM.
For `O=C(CCC1CCCC1)NC1(C(F)(F)F)C(=O)Nc2nc3c(-c4ccc(Cl)c(Cl)c4)cccc3n21` (stereo not shown) [Example 203, 3-cyclopentyl-N-[9-(3,4-dichlorophenyl)-4-oxo-3-(trifluoromethyl)-2,5,7-triazatricyclo[6.4.0.0^2,6]dodeca-1(12),6,8,10-tetraen-3-yl]propanamide], the IC50 was 1.34 µM.
With `CSc1ccc(-c2cccc3c2nc2n3C(NC(=O)CCC3CCCC3)(C(F)(F)F)C(=O)N2)cc1` (stereo not shown) [Example 232, 3-cyclopentyl-N-{9-[4-(methylsulfanyl)phenyl]-4-oxo-3-(trifluoromethyl)-2,5,7-triazatricyclo[6.4.0.0^2,6]dodeca-1(12),6,8,10-tetraen-3-yl}propanamide] the IC50 was 0.54 µM.
Work on `O=C(CCC1CCCC1)NC1(C(F)(F)F)C(=O)Nc2nc3c(C(=O)O)cc(Cl)cc3n21` (stereo not shown) [Example 233, 11-chloro-3-(3-cyclopentylpropanamido)-4-oxo-3-(trifluoromethyl)-2,5,7-triazatricyclo[6.4.0.0^2,6]dodeca-1(12),6,8,10-tetraene-9-carboxylic acid] yielded an IC50 of 0.49 µM.
`CCCC(=O)NC1(C(F)(F)F)C(=O)Nc2nc3c(-c4ccc(OC)cc4)cccc3n21` (stereo not shown) [Example 234, N-[9-(4-methoxyphenyl)-4-oxo-3-(trifluoromethyl)-2,5,7-triazatricyclo[6.4.0.0^2,6]dodeca-1(12),6,8,10-tetraen-3-yl]butanamide] was tested, and the IC50 was 0.92 µM.
Work on `CC(C)CNc1nc(C(=O)NC2(C(F)(F)F)C(=O)Nc3nc4cc(Cl)c(Cl)cc4n32)cs1` (stereo not shown) [Example 237, N-[10,11-dichloro-4-oxo-3-(trifluoromethyl)-2,5,7-triazatricyclo[6.4.0.0^2,6]dodeca-1(12),6,8,10-tetraen-3-yl]-2-[(2-methylpropyl)amino]-1,3-thiazole-4-carboxamide] yielded an IC50 of 1.81 µM.

From patent publication US9771372B2, “Compounds useful as S100-inhibitors” (Active Biotech AB, priority 2014, dated 2017)
